{"source": "paper PMC7546441", "about": "(Nature chemical biology, 2019)", "key": {"Bs GDH": {"target": "Bs GDH (Bacillus subtilis, UniProt P12310)", "sequence (P12310 whole entry)": "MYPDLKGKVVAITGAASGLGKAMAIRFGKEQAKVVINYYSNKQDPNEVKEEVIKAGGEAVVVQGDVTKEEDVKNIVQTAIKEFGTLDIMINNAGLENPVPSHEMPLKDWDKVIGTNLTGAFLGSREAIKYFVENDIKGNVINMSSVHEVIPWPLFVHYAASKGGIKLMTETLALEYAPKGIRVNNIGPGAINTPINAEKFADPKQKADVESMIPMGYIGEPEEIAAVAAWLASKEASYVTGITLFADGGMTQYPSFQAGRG", "experiment": "full steady-state kinetics, ordered bi-bi fit, […] nm", "type": "biochemical", "conditions": "cofactor and glucose varied, 35 mM Tris-HCl pH 8.0, 25 °C"}, "XenA": {"target": "XenA (Pseudomonas putida, UniProt Q9R9V9)", "experiment": "initial rate, absorbance at […] nm", "type": "biochemical", "conditions": "0.2 mM NMNH, 5 mM ketoisophorone, 200 mM phosphate pH 7.5, 37 °C"}}}
{"smiles": "OC[C@H]1OC(O)[C@H](O)[C@@H](O)[C@@H]1O", "note": "(stereo partly drawn) [D-glucose]", "values": [{"measurement": "KB", "setting": "Bs GDH", "value": "KA and KB are Michaelis constants for cofactor and substrate, respectively"}]}
{"smiles": "NC(=O)C1=CN([C@@H]2O[C@H](COP(=O)(O)O)[C@@H](O)[C@H]2O)C=CC1", "note": "[NMNH]", "values": [{"measurement": "initial rate, absorbance at 340 nm", "setting": "XenA", "value": "reduced NMN^+ (NMNH) was also well accepted by XenA"}]}
